Our source for the IC50 values is BindingDB's records for patent US11718622 (Exelixis, 2023).

Each structure is given as a SMILES string. Where only a bound is given, the exact number is not on record here.

In general, IC50 refers to the concentration needed to halve the response being measured.

For one experiment, the target named is Adenosine receptor A2a (Homo sapiens, UniProt P29274). As to the kind of experiment: ADORA1A Receptor Binding Assay. Here is the method: 2 L of each compound (test compounds, high control compound, low control compound) was transferred into individual wells of an assay plate. Also, to each individual well, 98 µL of Adenosine A1a membrane stock (for ADORA1A Receptor Binding Assay) or Adenosine A2a membrane stock (for ADORA2A Receptor Binding Assay) was dispensed, followed by 100 L of radio-labeled ligand. Plates were then sealed and incubated at room temperature for 1 hour (for ADORA1A Receptor Binding Assay) or 2 hours (for ADORA2A Receptor Binding Assay). Unifilter-96 GF/C filter plates were pre-soaked with 50 µL of 0.3% PEI per well for at least 30 min at room temperature. When binding assays were completed, reaction mixtures were filtered through GF/C plates using a Perkin Elmer Filtermate Harvester, and then each plate was washed 4 with cold wash buffer. Filter plates were then dried for 1 hour at 50 ° C. After drying, the bottom of the filter plate wells was sealed using Perkin Elmer Unifilter-96 backing seal tape. […] 3H trapped on the filter was counted using a Perkin Elmer MicroBeta2 Reader. Data analysis was performed using GraphPad Prism 5 software, and the Inhibition [% Control] was calculated using the following equation: % Inh=(1 Background subtracted Assay value/Background subtracted HC value) *100.

The next experiment deals with T1, Adenosine receptor A2b (Homo sapiens, UniProt P29275).
T1 sequence (P29275 whole entry): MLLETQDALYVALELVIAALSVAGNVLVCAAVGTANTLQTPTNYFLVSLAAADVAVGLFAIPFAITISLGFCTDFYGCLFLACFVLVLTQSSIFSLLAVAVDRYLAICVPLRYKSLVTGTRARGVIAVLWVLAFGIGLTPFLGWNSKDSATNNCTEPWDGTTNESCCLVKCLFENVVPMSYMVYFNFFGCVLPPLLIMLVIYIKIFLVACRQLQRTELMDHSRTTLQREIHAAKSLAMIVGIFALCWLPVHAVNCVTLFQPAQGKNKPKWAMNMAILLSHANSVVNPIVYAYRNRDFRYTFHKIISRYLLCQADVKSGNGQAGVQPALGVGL
As to the kind of experiment: ADORA2B Receptor Binding Assay. Here is the method: 100 μL of Adenosine A2B membrane stock was dispensed into individual wells of an assay plate. 1 μL of each compound (test compounds, high control compound, low control compound) was then transferred into individual wells, followed by 100 μL of radio-labeled ligand. Plates were then sealed, and incubated at room temperature for 1 hour. Unifilter-96 GF/C filter plates were pre-soaked with 50 μL of 0.5% BSA per well for at least 30 min at room temperature. When binding assays were completed, reaction mixtures were filtered through GF/C plates using a Perkin Elmer Filtermate Harvester, and then each plate was washed 4× with cold wash buffer. Filter plates were then dried for 1 hour at 50° C. After drying, the bottom of the filter plate wells was sealed using Perkin Elmer Unifilter-96 backing seal tape. 50 μL of Perkin Elmer Microscint 20 cocktail was then added, and the top of the filter plate was then sealed using Perkin Elmer TopSeal-A sealing film. 3H trapped on the filter was counted using a Perkin Elmer MicroBeta2 Reader. Data analysis was performed using GraphPad Prism 5 software, and the Inhibition [% Control] was calculated using the following equation: % Inh=(1−Background subtracted Assay value/Background subtracted HC value) *100.

Adenosine receptor A2a, sequence (P29274 whole entry): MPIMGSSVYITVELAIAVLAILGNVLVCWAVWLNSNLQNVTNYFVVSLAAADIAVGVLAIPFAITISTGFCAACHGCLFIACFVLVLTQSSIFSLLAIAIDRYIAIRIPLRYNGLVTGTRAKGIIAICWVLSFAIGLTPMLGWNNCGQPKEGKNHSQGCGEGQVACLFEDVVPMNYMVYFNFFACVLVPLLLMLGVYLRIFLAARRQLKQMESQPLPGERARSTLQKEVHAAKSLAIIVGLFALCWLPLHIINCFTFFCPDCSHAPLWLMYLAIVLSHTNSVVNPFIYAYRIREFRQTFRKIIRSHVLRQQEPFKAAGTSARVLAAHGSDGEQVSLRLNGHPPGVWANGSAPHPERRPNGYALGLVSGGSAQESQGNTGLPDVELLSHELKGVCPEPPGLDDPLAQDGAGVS

As to `Cc1ccc(-c2nc(N)c(C#N)c3nc(C(F)(F)F)nn23)o1` [US11718622, Compound 46], the concentration for half-maximal inhibition (IC50) at Adenosine receptor A2a and at Adenosine receptor A2b was less than 10 nM throughout.

`Nc1nc2c(-c3ccco3)nc(NC(=O)C3CC3)cn2n1` [US11718622, Compound 186]: the IC50 at Adenosine receptor A2a and at Adenosine receptor A2b was less than 10 nM in each case.
